Measured values as given in ChEMBL document CHEMBL5360557 (Eur J Med Chem, 2023).
Activity calls are given as the source filed them. The calls are words filed in the database; no cut-off is given here.

How the values were obtained:
Acetylcholinesterase = Acetylcholinesterase (Homo sapiens, UniProt P22303); assay: Inhibition of recombinant human AChE using acetylthiocholine iodide as substrate preincubated with enzyme for 5 mins followed by substrate addition and measured after 1 min by Ellman's method
Acetylcholinesterase, sequence (P22303 whole entry): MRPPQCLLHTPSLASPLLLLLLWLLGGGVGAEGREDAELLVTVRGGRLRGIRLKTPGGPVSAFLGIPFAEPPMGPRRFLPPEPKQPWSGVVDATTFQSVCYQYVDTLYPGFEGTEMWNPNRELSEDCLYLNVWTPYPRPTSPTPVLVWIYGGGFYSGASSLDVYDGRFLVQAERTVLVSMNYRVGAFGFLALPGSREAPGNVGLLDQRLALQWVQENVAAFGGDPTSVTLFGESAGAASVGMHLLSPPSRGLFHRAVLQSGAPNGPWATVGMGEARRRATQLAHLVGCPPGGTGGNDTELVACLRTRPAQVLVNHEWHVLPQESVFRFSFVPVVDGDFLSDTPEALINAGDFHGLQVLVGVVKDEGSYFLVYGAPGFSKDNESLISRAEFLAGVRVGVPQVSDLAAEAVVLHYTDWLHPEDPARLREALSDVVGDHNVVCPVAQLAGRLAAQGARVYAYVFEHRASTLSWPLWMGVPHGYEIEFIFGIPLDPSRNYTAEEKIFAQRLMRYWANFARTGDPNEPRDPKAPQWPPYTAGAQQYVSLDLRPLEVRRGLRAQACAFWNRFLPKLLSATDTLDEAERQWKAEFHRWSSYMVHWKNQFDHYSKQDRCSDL

Cholinesterase [1] = target: T1, Cholinesterase (Homo sapiens, UniProt P06276); assay: Inhibition of recombinant human BuChE using butyrylthiocholine iodide as substrate at 10 uM preincubated with enzyme for 5 mins followed by substrate addition and measured after 1 min by Ellman's method relative to control; conditions: time 6.0 min
T1 sequence (P06276 whole entry): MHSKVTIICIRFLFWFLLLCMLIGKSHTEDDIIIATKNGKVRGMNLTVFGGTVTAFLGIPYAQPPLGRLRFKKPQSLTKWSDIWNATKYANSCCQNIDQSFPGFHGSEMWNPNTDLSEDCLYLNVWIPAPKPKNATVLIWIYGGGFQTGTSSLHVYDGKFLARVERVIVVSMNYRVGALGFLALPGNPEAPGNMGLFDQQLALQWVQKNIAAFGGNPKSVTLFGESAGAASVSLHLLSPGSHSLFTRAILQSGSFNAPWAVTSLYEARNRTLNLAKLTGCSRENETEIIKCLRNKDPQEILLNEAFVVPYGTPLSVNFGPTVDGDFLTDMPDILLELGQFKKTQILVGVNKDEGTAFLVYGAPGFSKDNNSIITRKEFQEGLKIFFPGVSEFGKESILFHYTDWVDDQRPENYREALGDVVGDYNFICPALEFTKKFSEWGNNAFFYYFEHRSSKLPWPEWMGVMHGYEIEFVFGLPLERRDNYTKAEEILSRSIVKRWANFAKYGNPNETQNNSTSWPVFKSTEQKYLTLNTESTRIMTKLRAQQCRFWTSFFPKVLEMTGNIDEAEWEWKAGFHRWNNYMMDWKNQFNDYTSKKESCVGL

in vitro = conditions: PAMPA
Description: Permeability of the compound incubated for 3 to 6 hrs by PAMPA-BBB assay

[2] = Cytotoxicity against human HepG2 cells assessed as inhibition of cell growth incubated for 24 hrs by MTT assay; assay type: toxicity, cell-based
Cholinesterase [3] = target: T1, Cholinesterase; assay: Inhibition of recombinant human BuChE using butyrylthiocholine iodide as substrate preincubated with enzyme for 5 mins followed by substrate addition and measured after 1 min by Ellman's method
Cholinesterase [4] = target: T1, Cholinesterase; assay: Competitive inhibition of human BuChE using butyrylthiocholine iodide as substrate assessed as increase in Km with constant apparent Vmax preincubated with enzyme for 5 mins followed by substrate addition and measured after 1 min by Lineweaver-Burk plot based Ellman's method; conditions: time 6.0 min
[5] = Cytotoxicity against human SH-SY5Y cells assessed as inhibition of cell growth incubated for 24 hrs by MTT assay; assay type: toxicity, cell-based
Cholinesterase [6] = target: T1, Cholinesterase; assay: Competitive inhibition of human BuChE using butyrylthiocholine iodide as substrate assessed as inhibition constant preincubated with enzyme for 5 mins followed by substrate addition and measured after 1 min by Lineweaver-Burk plot based Ellman's method

Question: For COc1cccc(CN(CCCc2ccccc2F)C2CCC2)c1OCc1ccccc1, which IC50 (Acetylcholinesterase) is on record?
Answer: > 10 µM

Question: What about the inhibition (Cholinesterase [1]) of the same molecule?
Answer: 99%

Question: And the Papp (in vitro)?
Answer: 60 ×10⁻⁶ cm/s

Question: And the IC50 at 24 h [2]?
Answer: 76 µM

Question: What about the IC50 (Cholinesterase [3]) of the same molecule?
Answer: 0.004 µM

Question: What about the inhibition (Cholinesterase [4]) of the same molecule?
Answer: Active

Question: And the IC50 at 24 h [5]?
Answer: 87 µM

Question: What about the Ki (Cholinesterase [6]) of the same molecule?
Answer: 0.00404 µM
